Source: article PMC12167799, “The role of human Shu complex in ATP-dependent regulation of RAD51 filaments during homologous recombination–associated DNA damage response” (The Journal of Biological Chemistry, 2025)

Biological target: T1, hSWS1-SWSAP1 (human Shu complex) (Homo sapiens, UniProt Q6NVH7)
T1 construct: heterodimer co-expressed in High Five insect cells (baculovirus); SWSAP1 with TEV-cleavable N-terminal 6xHis tag (cleaved), SWS1 untagged; with Zinc finger SWIM domain-containing protein 7
T1 sequence (Q6NVH7 22-250): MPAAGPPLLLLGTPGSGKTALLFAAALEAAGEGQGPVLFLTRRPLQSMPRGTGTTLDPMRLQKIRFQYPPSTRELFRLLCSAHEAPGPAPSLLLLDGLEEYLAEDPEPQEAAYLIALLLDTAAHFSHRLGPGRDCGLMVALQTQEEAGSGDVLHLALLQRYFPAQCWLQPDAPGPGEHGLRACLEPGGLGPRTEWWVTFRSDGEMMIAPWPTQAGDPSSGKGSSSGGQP
T1 sequence (Q19AV6 1-140 partner): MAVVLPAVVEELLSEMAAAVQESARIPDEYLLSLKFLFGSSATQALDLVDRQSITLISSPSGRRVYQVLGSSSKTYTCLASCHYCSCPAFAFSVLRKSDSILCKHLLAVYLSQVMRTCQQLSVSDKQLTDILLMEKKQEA
Assay: TNP-ATP displacement fluorescence, one-site competitive fit
Format: binding
Settings: read-out: Kd^ATP; 2 μM protein; 2.5 μM TNP-ATP; no DNA; 37 °C; competitive with TNP-ATP

Q: With `Nc1ncnc2c1ncn2[C@@H]1O[C@H](COP(=O)(O)OP(=O)(O)OP(=O)(O)O)[C@@H](O)[C@H]1O` [ATP] as the compound, how does the Kd read?
A: The Kd was 72.3 µM.
